We go through 20 compounds from patent US20250084087A1, “BICYCLIC HETEROCYCLES AS MRGPRX2 ANTAGONISTS” (Incyte Corporation, priority 2023, published 2025).

Common to all, as to type: cell-based
Experiment [1] has as its target T1, MRGPRX2 (Homo sapiens, UniProt Q96LB1).
T1 sequence (Q96LB1 1-330): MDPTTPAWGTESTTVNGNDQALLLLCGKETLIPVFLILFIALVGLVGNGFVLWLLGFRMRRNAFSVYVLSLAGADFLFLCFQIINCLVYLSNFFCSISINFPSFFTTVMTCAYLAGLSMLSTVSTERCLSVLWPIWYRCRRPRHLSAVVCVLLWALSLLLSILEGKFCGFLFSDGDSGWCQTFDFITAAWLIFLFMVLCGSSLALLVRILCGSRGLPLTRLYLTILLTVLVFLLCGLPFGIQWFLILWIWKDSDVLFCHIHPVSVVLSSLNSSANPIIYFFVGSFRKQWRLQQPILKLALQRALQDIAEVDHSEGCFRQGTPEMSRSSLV
As to the kind of experiment: MRGPRX2 IP1 HTRF assay. Also on record: host or cells: CHO-K1. To be noted: CHO-K1 cells stably expressing human MRGPRX2; IP1 accumulation; agonist Cortistatin 14 1 μM. The essentials:
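CHO-K1 cells stably expressing human MRGPRX2, preincubated with compound 1 h at 37 °C, then stimulated with 1 μM Cortistatin 14 for 1 h. IP1 measured by HTRF against standard curve, normalized to DMSO and reference antagonist controls; IC50 from 3- or 4-parameter Hill fit.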

Experiment [2] deals with T1, MRGPRX2. Nature of the experiment: MRGPRX2 FLIPR calcium mobilization assay. To be noted: CHO-K1 cells stably expressing human MRGPRX2; Ca2+ release; agonist Cortistatin-14 at EC80. Also on record: host or cells: CHO-K1. As to the method: Example A. MRGPRX2 FLIPR Calcium Mobilization Assay
Chinese hamster ovary (CHO-K1) cells stably expressing human MRGPRX2 were purchased from Genescript (Piscataway, NJ). The cells were maintained in culture medium (Ham's F-12K) containing 10% (v/v) FBS, 200 μg/mL Zeocin, 100 units/mL penicillin G and 100 μg/mL streptomycin (Life Technologies, Carlsbad, CA). For the assay, the cells were harvested and resuspended with culture medium without Zeocin before plating at 8000 cells per well in 20 μL in 384-well black clear bottom cell culture plates (VWR, Radnor, PA). After 24 hour culture at 37° C. and 5% CO2, the cells were loaded with 20 μL/well of calcium dye (FLIPR Calcium 6 Assay Kit, Molecular Devices, San Jose, CA) diluted in loading buffer (1× Hank's Balanced Salt Solution (HBSS), 5 mM probenecid, 20 mM 4-(2-hydroxyethyl)-1-piperazineethanesulfonic acid (HEPES), pH 7.4, VWR, Radnor, PA) followed with 45 min. incubation at 37° C. and 40 min. at r.t. in the dark. Cells were then treated with the addition of 10 uL/well test compounds with a range of increasing concentrations diluted in the assay buffer (1×HBSS, 20 mM HEPES, pH 7.4, VWR, Radnor, PA) with FLIPR Penta (Molecular Devices. San Jose, CA) and incubated for 30 min. at r.t. Ca^2+ release was measured with FLIPR Penta with 10 seconds basal fluorescence measurement, then 12.5 μL of 5× agonist Cortistatin-14 (Tocris, Minneapolis, MN) at final concentration corresponding to the EC80 were added followed with continued fluorescence signal monitoring for an additional 110 seconds. The base line adjusted (median of first 10s base line) max value of the Relative Fluorescence Unit (RFU) was plotted against compound concentrations. Wells with no compound were served as the positive controls, and wells with high concentration of reference antagonist were used as negative controls. IC50 curves were globally fitted with 3- or 4-parameter Hill equation in a Genedata Screener (Genedata Basel, Switzerland).

For experiment [3], the target named is T1, MRGPRX2. As to the kind of experiment: MRGPRX2 β-Arrestin recruitment assay (PathHunter). Also on record: host or cells: CHO-K1 (PathHunter). To be noted: PathHunter CHO-K1 MRGPRX2 β-Arrestin cell line; agonist Cortistatin 14 0.25 μM. The essentials: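 CHO-K1 PathHunter cells co-expressing ProLink-tagged MRGPRX2 and enzyme-acceptor-tagged β-arrestin were preincubated with compound 1 h at 37° C., then stimulated with cortistatin-14 (0.25 μM final) for 90 min. Enzyme-complementation luminescence read after 1 h detection; data normalized to DMSO and reference antagonist, IC50 from 3- or 4-parameter Hill fit.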

Turning to `N#CCC(=O)N1CCC(CNc2cccc3nc(C(F)(F)F)cn23)(c2ccc(F)cn2)CC1` [Example 24, 3-(4-(5-Fluoropyridin-2-yl)-4-(((2-(trifluoromethyl)imidazo[1,2-a]pyridin-5-yl)amino)methyl)piperidin-1-yl)-3-oxopropanenitrile], the IC50 on MRGPRX2 [1] is 100 to 1000 nM; on MRGPRX2 [2] it was 0.1 to 100 nM.

Consider `NC(=O)N1CC(CNc2cc(C(F)(F)F)nc3cc(C(F)(F)F)nn23)(n2cc(F)cn2)C1` [Example 10, 3-(((2,5-Bis(trifluoromethyl)pyrazolo[1,5-a]pyrimidin-7-yl)amino)methyl)-3-(4-fluoro-1H-pyrazol-1-yl)azetidine-1-carboxamide], for which the IC50 at MRGPRX2 [1] and at MRGPRX2 [2] was 0.1 to 100 nM each time.

Take `NC(=O)N1CC(CNc2cccc3nc(C(F)(F)F)nn23)(n2cc(F)cn2)C1` [Example 12, 3-(4-Fluoro-1H-pyrazol-1-yl)-3-(((2-(trifluoromethyl)-[1,2,4]triazolo[1,5-a]pyridin-5-yl)amino)methyl)azetidine-1-carboxamide]: the figures for the IC50 at MRGPRX2 [1] and on MRGPRX2 [2] were 100 to 1000 nM and 0.1 to 100 nM, respectively.

Turning to `NC(=O)N1CCC(CNc2cc(C(F)(F)F)nc3cc(C(F)(F)F)nn23)(c2ccccc2)CC1` [Example 16, 4-(((2,5-Bis(trifluoromethyl)pyrazolo[1,5-a]pyrimidin-7-yl)amino)methyl)-4-phenylpiperidine-1-carboxamide], the IC50 at MRGPRX2 [1] and on MRGPRX2 [2] was 0.1 to 100 nM each time.

On to `NS(=O)(=O)N1CC(CNc2cccc3nc(C(F)(F)F)cn23)(c2ccc(F)cc2)C1` [Example 34, 3-(4-Fluorophenyl)-3-(((2-(trifluoromethyl)imidazo[1,2-a]pyridin-5-yl)amino)methyl)azetidine-1-sulfonamide], for which the IC50 on MRGPRX2 [1] and on MRGPRX2 [2] was 0.1 to 100 nM in each case.

With `CNC(=O)N1CCC(CNc2cc(C)cc3nc(C(F)(F)F)cn23)(c2ccccc2)CC1` [Example 28, N-Methyl-4-(((7-methyl-2-(trifluoromethyl)imidazo[1,2-a]pyridin-5-yl)amino)methyl)-4-phenylpiperidine-1-carboxamide], the IC50 at MRGPRX2 [1] and at MRGPRX2 [2] was 0.1 to 100 nM throughout.

On to `O=C(CN1CCC1)N1CCC(CNc2cc(C(F)(F)F)nc3cc(Br)nn23)(c2ccc(F)cc2)CC1` [Example 60, 2-(Azetidin-1-yl)-1-(4-(((2-bromo-5-(trifluoromethyl)pyrazolo[1,5-a]pyrimidin-7-yl)amino)methyl)-4-(4-fluorophenyl)piperidin-1-yl)ethan-1-one], for which the IC50 on MRGPRX2 [3] and on MRGPRX2 [2] was 0.1 to 100 nM throughout.

Turning to `COC(=O)N1CCC(CNc2cc(C(F)(F)F)nc3cc(C(F)(F)F)nn23)(c2ccccc2)CC1` [Example 14, Methyl 4-(((2,5-bis(trifluoromethyl)pyrazolo[1,5-a]pyrimidin-7-yl)amino)methyl)-4-phenylpiperidine-1-carboxylate], the 50% inhibitory concentration (IC50) at MRGPRX2 [1] was 100 to 1000 nM; at MRGPRX2 [2] it was 0.1 to 100 nM.

As for `NC(=O)c1cccc(N2CC(CNc3cc(C(F)(F)F)nc4cc(C(F)(F)F)nn34)(c3ccc(F)cc3)C2)n1` [Example 47, 6-(3-(((2,5-Bis(trifluoromethyl)pyrazolo[1,5-a]pyrimidin-7-yl)amino)methyl)-3-(4-fluorophenyl)azetidin-1-yl)picolinamide], the IC50 on MRGPRX2 [3] and on MRGPRX2 [2] was 0.1 to 100 nM each time.

Take `Cn1nc(N2CCC(CNc3cc(C(F)(F)F)nc4cc(C(F)(F)F)nn34)(c3ccc(F)cc3)CC2)ccc1=O` [Example 40, 6-(4-(((2,5-Bis(trifluoromethyl)pyrazolo[1,5-a]pyrimidin-7-yl)amino)methyl)-4-(4-fluorophenyl)piperidin-1-yl)-2-methylpyridazin-3(2H)-one]: the IC50 at MRGPRX2 [3] and at MRGPRX2 [2] was 0.1 to 100 nM throughout.

Take `CNC(=O)N1CCC(CNc2cccc3nc(C(F)(F)F)nn23)(c2ccccc2)CC1` [Example 13, N-Methyl-4-phenyl-4-(((2-(trifluoromethyl)-[1,2,4]triazolo[1,5-a]pyridin-5-yl)amino)methyl)piperidine-1-carboxamide]: the IC50 at MRGPRX2 [1] and on MRGPRX2 [2] was 0.1 to 100 nM throughout.

Take `CNC(=O)N1CCC(CNc2cccc3nc(C(F)(F)C(F)(F)F)cn23)(c2ccccc2)CC1` [Example 26, N-Methyl-4-(((2-(perfluoroethyl)imidazo[1,2-a]pyridin-5-yl)amino)methyl)-4-phenylpiperidine-1-carboxamide]: the IC50 on MRGPRX2 [1] and on MRGPRX2 [2] was 0.1 to 100 nM in each case.

`NS(=O)(=O)N1CCC(CNc2nc(Cl)cc3nc(C(F)(F)F)cn23)(c2ccccc2)CC1` [Example 5, 4-(((7-Chloro-2-(trifluoromethyl)imidazo[1,2-c]pyrimidin-5-yl)amino)methyl)-4-phenylpiperidine-1-sulfonamide]: the IC50 on MRGPRX2 [1] and on MRGPRX2 [2] was 0.1 to 100 nM each time.

For `CC(=O)N(C)C1CCC(CNc2cc(C(F)(F)F)nc3cc(Br)nn23)(c2ccccc2)CC1` (stereo not shown) [Example 85, N-(4-(((2-Bromo-5-(trifluoromethyl)pyrazolo[1,5-a]pyrimidin-7-yl)amino)methyl)-4-phenylcyclohexyl)-N-methylacetamide], the IC50 on MRGPRX2 [3] and at MRGPRX2 [2] was 0.1 to 100 nM in each case.

For `N#CCCNC1CCC(CNc2cc(C(F)(F)F)nc3cc(Br)nn23)(c2ccccc2)CC1` (stereo not shown) [Example 81, 3-((4-(((2-Bromo-5-(trifluoromethyl)pyrazolo[1,5-a]pyrimidin-7-yl)amino)methyl)-4-phenylcyclohexyl)amino)propanenitrile], the IC50 at MRGPRX2 [3] and at MRGPRX2 [2] was 0.1 to 100 nM in each case.

For the compound `Cn1cc(N2CC(CNc3cc(C(F)(F)F)nc4cc(C(F)(F)F)nn34)(c3ccc(F)cc3)C2)nn1` [Example 46, N-((3-(4-Fluorophenyl)-1-(1-methyl-1H-1,2,3-triazol-4-yl)azetidin-3-yl)methyl)-2,5-bis(trifluoromethyl)pyrazolo[1,5-a]pyrimidin-7-amine], the IC50 on MRGPRX2 [3] and on MRGPRX2 [2] was 0.1 to 100 nM throughout.

On to `CN1CC[C@@H]1C(=O)N1CCC(CNc2cc(C(F)(F)F)nc3cc(C(F)(F)F)nn23)(c2ccc(F)cc2)CC1` [Example 50, (R)-(4-(((2,5-Bis(trifluoromethyl)pyrazolo[1,5-a]pyrimidin-7-yl)amino)methyl)-4-(4-fluorophenyl)piperidin-1-yl)(1-methylazetidin-2-yl)methanone], for which the IC50 on MRGPRX2 [3] and at MRGPRX2 [2] was 0.1 to 100 nM in each case.

Turning to `O=C(NC1CC1)N1CC(CNc2cc(C(F)(F)F)nc3cc(C(F)F)nn23)(c2ccc(F)cc2)C1` [Example 63, N-Cyclopropyl-3-(((2-(difluoromethyl)-5-(trifluoromethyl)pyrazolo[1,5-a]pyrimidin-7-yl)amino)methyl)-3-(4-fluorophenyl)azetidine-1-carboxamide], the IC50 on MRGPRX2 [3] and at MRGPRX2 [2] was 0.1 to 100 nM throughout.

In the case of `CNC1CCC(CNc2cc(C(F)(F)F)nc3cc(Br)nn23)(c2ccccc2)CC1` (stereo not shown) [Example 83, 2-Bromo-N-((4-(methylamino)-1-phenylcyclohexyl)methyl)-5-(trifluoromethyl)pyrazolo[1,5-a]pyrimidin-7-amine], the IC50 at MRGPRX2 [3] and on MRGPRX2 [2] was 0.1 to 100 nM in each case.

`OC1CCC(CNc2cc(C(F)(F)F)nc3cc(Br)nn23)(c2ccccc2)C1` (racemic) [Example 84, 3-(((2-Bromo-5-(trifluoromethyl)pyrazolo[1,5-a]pyrimidin-7-yl)amino)methyl)-3-phenylcyclopentan-1-ol]: the IC50 at MRGPRX2 [3] and at MRGPRX2 [2] was 0.1 to 100 nM in each case.
